pIC50: −log10 of the molar value.
Key:
Plasmodium yoelii [1] = assay: Antiplasmodial activity in chloroquine-nonsensitive Plasmodium yoelii infected BALB/c mice (Mus musculus) assessed as inhibition of parasitaemia at 1 mg/kg, intraperitoneally daily once for 4 days; type: functional; settings: ip, 96 h, route intraperitoneal
Plasmodium yoelii [2] = assay: Antiplasmodial activity in chloroquine-nonsensitive Plasmodium yoelii infected BALB/c mice (Mus musculus) assessed as inhibition of parasitaemia at 3 mg/kg, intraperitoneally daily once for 4 days; type: functional; settings: route intraperitoneal
Plasmodium berghei [3] = assay: Antiplasmodial activity in chloroquine-sensitive Plasmodium berghei ANKA infected BALB/c mice (Mus musculus) assessed as inhibition of parasitemia at 10 mg/kg, intraperitoneally daily once for 4 days; type: functional; settings: ip, 96 h, route intraperitoneal
Plasmodium berghei [4] = assay: Antiplasmodial activity in chloroquine-sensitive Plasmodium berghei ANKA infected BALB/c mice (Mus musculus) assessed as mean parasitemia at 10 mg/kg, intraperitoneally daily once for 4 days; type: functional; settings: route intraperitoneal
Plasmodium yoelii [5] = assay: Antiplasmodial activity in chloroquine-nonsensitive Plasmodium yoelii infected BALB/c mice (Mus musculus) assessed as inhibition of parasitaemia at 10 mg/kg, intraperitoneally daily once for 4 days; type: functional; settings: ip, 96 h, route intraperitoneal
Plasmodium yoelii [6] = assay: Antiplasmodial activity in chloroquine-nonsensitive Plasmodium yoelii infected BALB/c mice (Mus musculus) assessed as inhibition of parasitaemia at 30 mg/kg, intraperitoneally daily once for 4 days; type: functional; settings: route intraperitoneal
KB = assay: Cytotoxicity against human KB cells; type: cell-based
Plasmodium falciparum [7] = assay: Antiplasmodial activity against chloroquine-sensitive Plasmodium falciparum D10 infected in human O+ RBC by parasite LDH assay; type: functional, organism-based
Plasmodium falciparum [8] = assay: Antiplasmodial activity against chloroquine-resistant Plasmodium falciparum K1 infected in human O+ erythrocytes by parasite LDH assay; type: functional, organism-based
Plasmodium berghei [9] = assay: Antiplasmodial activity in chloroquine-sensitive Plasmodium berghei ANKA infected BALB/c mice (Mus musculus) assessed as inhibition of parasitemia at 30 mg/kg, intraperitoneally daily once for 4 days; type: functional; settings: route intraperitoneal
Plasmodium berghei [10] = assay: Antiplasmodial activity in chloroquine-sensitive Plasmodium berghei ANKA infected BALB/c mice (Mus musculus) assessed as mean parasitemia at 30 mg/kg, intraperitoneally daily once for 4 days; type: functional; settings: route intraperitoneal

SMILES | inhibition in vivo at 10 mg/kg (Plasmodium yoelii [5]) [%] | inhibition (INH) (Plasmodium yoelii [2]) [%] | Activity (KB) [µM] | pIC50 (Plasmodium falciparum [7]) | pIC50 (Plasmodium falciparum [8]) | Activity (Plasmodium berghei [10]) [%] | further results
CCN(CC)CCCC(C)Nc1ccnc2cc(Cl)ccc12.O=P(O)(O)O.O=P(O)(O)O (stereo not drawn) [CHLOROQUINE PHOSPHATE] | 98.1 | – | – | – | – | – | inhibition in vivo at 1 mg/kg (Plasmodium yoelii [1]): 32.7%; inhibition in vivo at 3 mg/kg (Plasmodium yoelii [2]; Plasmodium yoelii, ip, 96 h): 32.7%; inhibition in vivo at 10 mg/kg (Plasmodium berghei [3]): 100%; Activity (Plasmodium berghei [4]): 0%
CN(C)Cc1ccccc1CNc1ccnc2cc(Cl)ccc12.O=C(O)CC(O)(CC(=O)O)C(=O)O [PHENYLEQUINE DICITRATE] | – | 8.9 | – | – | – | – | inhibition (INH) (Plasmodium yoelii [6]): 99.6%
CN(C)Cc1ccccc1CNc1ccnc2ccccc12 | – | – | 8.5 | 6.97 | 7.15 | – | –
CN(C)Cc1ccccc1CNc1ccnc2cc(Cl)ccc12 [PHENYLEQUINE] | – | – | 70 | 7.88 | 8.16 | 0 | inhibition (INH) (Plasmodium berghei [9]): 100%
CN(C)Cc1ccccc1CNCCNc1ccnc2cc(Cl)ccc12 | – | – | 14 | 7.71 | 8.01 | – | –
CN(C)Cc1ccccc1CNc1ccnc2cc(Cl)ccc12.Cl.Cl [PHENYLEQUINE DIHYDROCHLORIDE] | 99.7 | 94.5 | – | – | – | 0 | inhibition in vivo at 30 mg/kg (Plasmodium berghei [9]; Plasmodium berghei, ANKA, ip, 96 h): 100%; inhibition in vivo at 30 mg/kg (Plasmodium yoelii [6]; Plasmodium yoelii, ip, 96 h): 99.5%

From ChEMBL document CHEMBL1159040, “Synthesis and evaluation of phenylequine for antimalarial activity in vitro and in vivo” (Bioorg Med Chem Lett, 2010)
